Experimental data: publication PMC6596218, “Anthranilic amide and imidazobenzothiadiazole compounds disrupt Mycobacterium tuberculosis membrane potential” (MedChemComm, 2019)
Converted amounts (≈) assume the structure as drawn.

Experiments:
[1] = tested on: M. tuberculosis H37Rv; test: Minimum bactericidal concentration at pH 4.5 (MBC4.5), luminescence readout; format: cell-based, Mycobacterium tuberculosis; details: median, pH 4.5 phosphate citrate buffer, 7 days, 2-log reduction threshold, replicates in parentheses; for MBC: Mycobacterium tuberculosis, H37RV, 168 h
[2] = tested on: M. tuberculosis; parameters: method as in PMID 30501173; details: non-replicating, cited from earlier work
[3] = tested on: HepG2 cells; test: HepG2 cytotoxicity (CellTiter-Glo, 72 h); format: cell-based; details: Homo sapiens, mean ± standard deviation, replicates in parentheses
[4] = tested on: non-replicating M. tuberculosis; test: Non-replicating kill kinetics at pH 5.5 (CFU over 21 days); format: cell-based, Mycobacterium tuberculosis; details: single replicate; for log kill within 21 days: pH 5.5, 21 days
[5] = tested on: intracellular M. tuberculosis in RAW 264.7 cells; test: Activity against intracellular M. tuberculosis in RAW 264.7 cells; format: cell-based, Mycobacterium tuberculosis; details: RAW 264.7 cells (ATCC TIB-71)
Text: In addition to determination of the MBC4.5 for each compound, we evaluated antitubercular activity of the compounds as measured by MIC at pH 5.6 (Table S1 ^†) and IC50 against intracellular M. tuberculosis in RAW 264.7 cells (ATCC TIB-71) (Table S2 ^†). […] General cytotoxicity against the infected RAW 264.7 cells was observed and was correlated with cytotoxicity against HepG2 cells (Table S2 ^†).

| Compound | MBC [1] [µM] | MBC4.5 [1] | decrease of CFU in the culture within 7 days ([2]; pH 4.5 and pH 6.8, 10–100 μM, 7 days) [logs] | time to sterilizing the culture ([2]; pH 4.5 and pH 6.8, all concentrations 10–100 μM) [days] | IC50 [3] [µM] | log kill at 14 days ([4]; pH 5.5, 14 days) [log] | antitubercular activity against intracellular M. tuberculosis [5] | log kill within 21 days [4] [logs] |
| --- | --- | --- | --- | --- | --- | --- | --- | --- |
| O=[N+]([O-])c1cc2nc(C(F)(F)F)[nH]c2c2nsnc12 [Compound 2] | 25 (≈ 7.23 µg/mL) | 25 (2) μM | > 4 | ≤ 14 | 83 ± 24 | – | – | – |
| CS(=O)(=O)Nc1ccccc1C(=O)Nc1ccc(Cl)cc1Cl [Compound 8, N-(2,4-dichlorophenyl)-2-(methylsulfonamido)benzamide] | 75 (≈ 26.9 µg/mL) | – | – | – | 78 ± 29 | > 4 | – | – |
| CCN(C)c1ccccc1C(=O)Nc1ccc(Cl)cc1Cl [Compound 11, N-(2,4-dichlorophenyl)-2-(ethyl(methyl)amino)benzamide] | > 200 | – | – | – | 69 ± 44 | – | showed antitubercular activity | – |
| Cc1ccc(S(=O)(=O)Nc2ccccc2C(=O)Nc2ccc(Cl)cc2Cl)cc1 [Compound 15, N-(2,4-dichlorophenyl)-2-(4-methylphenylsulfonamido)benzamide] | > 200 | – | – | – | 37 ± 8.5 | – | – | > 3 |
| O=C(Nc1ccccn1)c1ccccc1NS(=O)(=O)c1ccc(Br)cc1 [Compound 24, 2-(4-bromophenylsulfonamido)-N-(pyridin-2-yl)benzamide] | 113 (≈ 48.8 µg/mL) | – | – | – | 52 ± 13 | – | – | > 3 |
